Source: ChEMBL document CHEMBL3885881, “DrugMatrix”

Organism: Rattus norvegicus
Experiment: DrugMatrix - Regimen: Daily Repeat
Format: toxicity, organism-based, Sprague-Dawley
Set-up: regimen Daily Repeat, gender Male, age 6-8 weeks
Details: in vivo, po, route oral GAVAGE, vehicle 100 % WATER; for ABSOLUTE BASOPHIL / ABSOLUTE EOSINOPHIL / ABSOLUTE LYMPHOCYTE / ABSOLUTE MONOCYTE / ABSOLUTE SEGMENTED NEUTROPHIL / BASOPHIL / EOSINOPHIL / ERYTHROCYTE COUNT / HEMATOCRIT / HEMOGLOBIN / LEUKOCYTE COUNT / LYMPHOCYTE / MEAN CORPUSCULAR HEMOGLOBIN / MEAN CORPUSCULAR HEMOGLOBIN CONCENTRATION / NEUTROPHIL / NUCLEATED RED BLOOD CELLS / PLATELET COUNT: tissue Blood; for ALANINE AMINOTRANSFERASE / ALBUMIN / ALKALINE PHOSPHATASE / ASPARTATE AMINOTRANSFERASE / BLOOD UREA NITROGEN / CARBON DIOXIDE / CHLORIDE / CHOLESTEROL / CREATINE PHOSPHOKINASE / CREATININE / GLUCOSE / LACTATE DEHYDROGENASE / LIPASE / PHOSPHORUS / POTASSIUM / SODIUM / TOTAL BILIRUBIN / TOTAL PROTEIN / URIC ACID: tissue Plasma
[1] = 94 mg/kg, 120 h, dose level High, time 5 day
[2] = […], 72 h, dose 2.3 mg/Kg, dose level Low, time 3 day
[3] = […], 120 h, dose 2.3 mg/Kg, dose level Low, time 5 day

## CN1[C@@H]2CC[C@H]1C[C@@H](OC(=O)C(CO)c1ccccc1)C2 (stereo partly drawn) [ATROPINE]
[1]
  ABSOLUTE BASOPHIL: 0 CELLS/uL
  ABSOLUTE EOSINOPHIL: 26.33 CELLS/uL
  ABSOLUTE LYMPHOCYTE: 8136 CELLS/uL
  ABSOLUTE MONOCYTE: 82.33 CELLS/uL
  ABSOLUTE SEGMENTED NEUTROPHIL: 555.33 CELLS/uL
  BASOPHIL: 0%
  EOSINOPHIL: 0.33%
  ERYTHROCYTE COUNT: 5.33 x10E6/uL
  HEMATOCRIT: 35.2%
  HEMOGLOBIN: 13.4 G/DL
  LEUKOCYTE COUNT: 8.8 x10E3/uL
  LYMPHOCYTE: 92.33%
  MEAN CORPUSCULAR HEMOGLOBIN: 25.13 pg
  MEAN CORPUSCULAR HEMOGLOBIN CONCENTRATION: 38.07 G/DL
  NEUTROPHIL: 6.33%
  NUCLEATED RED BLOOD CELLS: 0.33 /100WBC
  PLATELET COUNT: 1133.67 x10E3/uL
  ALANINE AMINOTRANSFERASE: 73.67 u/L
  ALBUMIN: 4.13 G/DL
  ALKALINE PHOSPHATASE: 335 u/L
  ASPARTATE AMINOTRANSFERASE: 106.67 u/L
  BLOOD UREA NITROGEN: 13 mg/dL
  CARBON DIOXIDE: 32 mmol/L
  CHLORIDE: 99.67 MEQ/L
  CHOLESTEROL: 52.33 mg/dL
  CREATINE PHOSPHOKINASE: 367.67 u/L
  CREATININE: 0.1 mg/dL
  GLUCOSE: 155 mg/dL
  LACTATE DEHYDROGENASE: 214.33 u/L
  LIPASE: 11 u/L
  PHOSPHORUS: 9.67 mg/dL
  POTASSIUM: 5.56 MEQ/L
  SODIUM: 143.2 MEQ/L
  TOTAL BILIRUBIN: 0.17 mg/dL
  TOTAL PROTEIN: 6.03 G/DL
  URIC ACID: 0.37 mg/dL
[2]
  ABSOLUTE BASOPHIL: 0 CELLS/uL
  ABSOLUTE EOSINOPHIL: 0 CELLS/uL
  ABSOLUTE LYMPHOCYTE: 12169.33 CELLS/uL
  ABSOLUTE MONOCYTE: 203.67 CELLS/uL
  ABSOLUTE SEGMENTED NEUTROPHIL: 1660.33 CELLS/uL
  BASOPHIL: 0%
  EOSINOPHIL: 0%
  ERYTHROCYTE COUNT: 5.43 x10E6/uL
  HEMATOCRIT: 34.63%
  HEMOGLOBIN: 13.57 G/DL
  LEUKOCYTE COUNT: 14.03 x10E3/uL
  LYMPHOCYTE: 88%
  MEAN CORPUSCULAR HEMOGLOBIN: 25 pg
  MEAN CORPUSCULAR HEMOGLOBIN CONCENTRATION: 39.17 G/DL
  NEUTROPHIL: 10.67%
  NUCLEATED RED BLOOD CELLS: 0 /100WBC
  PLATELET COUNT: 1077.33 x10E3/uL
  ALANINE AMINOTRANSFERASE: 49 u/L
  ALBUMIN: 3.93 G/DL
  ALKALINE PHOSPHATASE: 305.33 u/L
  ASPARTATE AMINOTRANSFERASE: 82.67 u/L
  BLOOD UREA NITROGEN: 10.67 mg/dL
  CARBON DIOXIDE: 28.67 mmol/L
  CHLORIDE: 99.33 MEQ/L
  CHOLESTEROL: 68.67 mg/dL
  CREATINE PHOSPHOKINASE: 256.67 u/L
  CREATININE: 0.1 mg/dL
  GLUCOSE: 142.67 mg/dL
  LACTATE DEHYDROGENASE: 161 u/L
  LIPASE: 9.33 u/L
  PHOSPHORUS: 10.27 mg/dL
  POTASSIUM: 6.48 MEQ/L
  SODIUM: 141.6 MEQ/L
  TOTAL BILIRUBIN: 0.27 mg/dL
  TOTAL PROTEIN: 5.63 G/DL
  URIC ACID: 0.97 mg/dL
[3]
  ABSOLUTE BASOPHIL: 0 CELLS/uL
  ABSOLUTE EOSINOPHIL: 0 CELLS/uL
  ABSOLUTE LYMPHOCYTE: 8930.67 CELLS/uL
  ABSOLUTE MONOCYTE: 135.33 CELLS/uL
  ABSOLUTE SEGMENTED NEUTROPHIL: 600.67 CELLS/uL
  BASOPHIL: 0%
  EOSINOPHIL: 0%
  ERYTHROCYTE COUNT: 5.39 x10E6/uL
  HEMATOCRIT: 35.13%
  HEMOGLOBIN: 13.5 G/DL
  LEUKOCYTE COUNT: 9.67 x10E3/uL
  LYMPHOCYTE: 93%
  MEAN CORPUSCULAR HEMOGLOBIN: 25.07 pg
  MEAN CORPUSCULAR HEMOGLOBIN CONCENTRATION: 38.43 G/DL
  NEUTROPHIL: 6%
  NUCLEATED RED BLOOD CELLS: 0 /100WBC
  PLATELET COUNT: 1298.67 x10E3/uL
  ALANINE AMINOTRANSFERASE: 55.33 u/L
  ALBUMIN: 4.07 G/DL
  ALKALINE PHOSPHATASE: 274 u/L
  ASPARTATE AMINOTRANSFERASE: 83 u/L
  BLOOD UREA NITROGEN: 13.67 mg/dL
  CARBON DIOXIDE: 34.67 mmol/L
  CHLORIDE: 98.33 MEQ/L
  CHOLESTEROL: 64.67 mg/dL
  CREATINE PHOSPHOKINASE: 318.67 u/L
  CREATININE: 0.12 mg/dL
  GLUCOSE: 137.67 mg/dL
  LACTATE DEHYDROGENASE: 169.67 u/L
  LIPASE: 12.33 u/L
  PHOSPHORUS: 10 mg/dL
  POTASSIUM: 5.77 MEQ/L
  SODIUM: 144.13 MEQ/L
  TOTAL BILIRUBIN: 0.2 mg/dL
  TOTAL PROTEIN: 6.23 G/DL
  URIC ACID: 0.37 mg/dL
